# Data taken from article PMC8539749 (Viruses, 2021).
# “Also recorded” adds a separate entry of the source. Like-named read-outs stand apart in the source and are kept apart here. Positions of bridges follow the written chain, without caps; N, C: chain ends. Residues, ends and D or L forms follow the SMILES beside them.
# Tests used:
# [1] = system: SFTSV; assay: microbe, parasite or virus in culture; assay type: cell-based, SFTSV HB29 strain; conditions: for IC50: Severe fever with thrombocytopenia syndrome virus
# [2] = system: SFTSV; conditions: cited from earlier work
# [3] = system: SFTSV; assay type: cell-based, SFTSV HB29 strain
# [4] = system: SFTSV; assay type: cell-based, SFTSV HB29 strain; remark: listed apart in the source
# [5] = system: SFTSV; assay type: cell-based, SFTSV HB29 strain; remark: listed apart in the source
# [6] = system: SFTSV Gc glycoprotein; conditions: cited from earlier work
smiles,measurement,setting,value
NC(=O)c1nc(F)c[nH]c1=O [Favipiravir],IC50,"[1]; Huh-7, read-out: Favipiravir IC50, alone",1.25 ± 0.101 µg/mL
same,IC50,"[1]; Huh-7, read-out: Favipiravir IC50, with HKU-P1 62.5 μg/mL",0.979 ± 0.194 µg/mL
same,IC50,"[1]; Huh-7, read-out: Favipiravir IC50, with HKU-P1 125 μg/mL",0.864 ± 0.132 µg/mL
same,IC50,"[1]; Huh-7, read-out: Favipiravir IC50, with HKU-P1 250 μg/mL",0.805 ± 0.105 µg/mL
same,anti-SFTSV activity in vitro and in vivo,[2],exhibit in vitro and in vivo activity against SFTSV
same,broad-spectrum antiviral effects,[2],"broad-spectrum antiviral effects against various RNA viruses, including SFTSV"
N=C(N)NCCC[C@@H]1NC(=O)[C@@H](NC(=O)[C@@H](N)CCCCN)CCCCNC(=O)[C@H](CO)NC(=O)CNC(=O)[C@H](Cc2ccccc2)NC(=O)CNC1=O [HKU-P1] (H-KKRGFGS; lactam 2-C),"viral load reduction, post-infection group",[3],no significant viral load reduction
same,"viral load reduction, pre-infection group",[3],no significant viral load reduction
same,anti-SFTSV activity (in words),[4],best anti-SFTSV activity; also recorded: displayed anti-SFTSV effects
same,dose dependence of viral load reduction,[4],reduced SFTSV viral load in a dose-dependent manner
same,reduction in SFTSV viral RNA load,[4],> 50%
same,SFTSV-NP expression (immunofluorescence),[5],markedly reduced
same,combination effect (in words),[1],synergistic antiviral effects in vitro; also recorded: consistently synergistic with favipiravir at different concentrations
Oc1c(Cl)cc(Cl)c(Cl)c1Cc1c(O)c(Cl)cc(Cl)c1Cl [hexachlorophene],likely target,[6],likely targets the SFTSV Gc glycoprotein
same,anti-SFTSV activity,[2],inhibited SFTSV replication at low micromolar concentrations
